According to US10323031B2, “Pesticidally active tetracyclic derivatives with sulfur containing substituents” (Syngenta Participations AG, priority 2015, dated 2019):

What was measured:
Type in all cases: in vivo
[1] = system: Diabrotica Balteata (Corn root worm); experiment: Diabrotica balteata larvae on maize sprouts (Example B2); details: 96 h, application rate of 200 ppm, L2 larvae, 4 days after infestation, read-out: effect in at least one of the two categories (mortality or growth inhibition)
Protocol: Diabrotica Balteata (Corn root worm)
Maize sprouts placed onto an agar layer in 24-well microtiter plates were treated with aqueous test solutions prepared from 10,000 ppm DMSO stock solutions by spraying. After drying, the plates were infested with L2 larvae (6 to 10 per well). The samples were assessed for mortality and growth inhibition in comparison to untreated samples 4 days after infestation.

[2] = system: Euschistus heros (Neotropical Brown Stink Bug); experiment: Euschistus heros nymphs on soybean leaves (Example B3); details: 120 h, application rate of 200 ppm, N2 nymphs, 5 days after infestation, read-out: effect in at least one of the two categories (mortality or growth inhibition)
Protocol: Euschistus heros (Neotropical Brown Stink Bug)
Soybean leaves on agar in 24-well microtiter plates were sprayed with aqueous test solutions prepared from 10,000 ppm DMSO stock solutions. After drying the leaves were infested with N2 nymphs. The samples were assessed for mortality and growth inhibition in comparison to untreated samples 5 days after infestation.

[3] = system: Plutella xylostella (Diamond Back Moth); experiment: Plutella xylostella larvae on artificial diet (Example B7); details: 120 h, application rate of 200 ppm, L2 larvae, 5 days after infestation, read-out: effect in at least one of the two categories (mortality or growth inhibition)
Protocol: Plutella xylostella (Diamond Back Moth)
24-well microtiter plates with artificial diet were treated with aqueous test solutions prepared from 10,000 ppm DMSO stock solutions by pipetting. After drying, the plates were infested with L2 larvae (10 to 15 per well). The samples were assessed for mortality and growth inhibition in comparison to untreated samples 5 days after infestation.

[4] = system: Spodoptera littoralis (Egyptian Cotton Leaf Worm); experiment: Spodoptera littoralis on sprayed cotton leaf discs (Example B8); details: foliar, 72 h, application rate of 200 ppm, L1 larvae, 3 days after infestation, read-out: control (mortality, anti-feeding effect, growth inhibition)
Protocol: (§1) Spodoptera littoralis (Egyptian Cotton Leaf Worm)
Cotton leaf discs were placed onto agar in 24-well microtiter plates and sprayed with aqueous test solutions prepared from 10,000 ppm DMSO stock solutions. After drying the leaf discs were infested with five L1 larvae. The samples were assessed for mortality, anti-feeding effect, and growth inhibition in comparison to untreated samples 3 days after infestation. Control of Spodoptera littoralis by a test sample is given when at least one of the categories mortality, anti-feedant effect, and growth inhibition is higher than the untreated sample.

[5] = system: Frankliniella occidentalis (Western Flower Thrips); experiment: Frankliniella occidentalis feeding/contact activity (Example B4); details: foliar, 168 h, application rate of 200 ppm, sunflower leaf discs, population of mixed ages, 7 days after infestation
Protocol: Frankliniella occidentalis (Western Flower Thrips): Feeding/Contact Activity
Sunflower leaf discs were placed on agar in 24-well microtiter plates and sprayed with aqueous test solutions prepared from 10,000 DMSO stock solutions. After drying the leaf discs were infested with a Frankliniella population of mixed ages. The samples were assessed for mortality 7 days after infestation.

[6] = system: Myzus persicae (Green Peach Aphid); experiment: Myzus persicae feeding/contact activity (Example B5); details: foliar, 144 h, application rate of 200 ppm, sunflower leaf discs, aphid population of mixed ages, 6 days after infestation
Protocol: Myzus persicae (Green Peach Aphid): Feeding/Contact Activity
Sunflower leaf discs were placed onto agar in a 24-well microtiter plate and sprayed with aqueous test solutions prepared from 10,000 ppm DMSO stock solutions. After drying, the leaf discs were infested with an aphid population of mixed ages. The samples were assessed for mortality 6 days after infestation.

[7] = system: Spodoptera littoralis (Egyptian Cotton Leaf Worm); experiment: Spodoptera littoralis, uptake by lettuce roots from agar (Example B9); details: 144 h, test rate of 12.5 ppm, lettuce grown on treated agar, eggs, 6 days after infestation, read-out: effect in at least one of the three categories (mortality, anti-feeding, or growth inhibition)
Description: as §1
Test compounds were applied by pipette from 10,000 ppm DMSO stock solutions into 24-well plates and mixed with agar. Lettuce seeds were placed onto the agar and the multi well plate was closed by another plate which contained also agar. After 7 days the compound was absorbed by the roots and the lettuce grew into the lid plate. The lettuce leaves were then cut off into the lid plate. Spodoptera eggs were pipetted through a plastic stencil onto a humid gel blotting paper and the lid plate was closed with it. The samples were assessed for mortality, anti-feedant effect and growth inhibition in comparison to untreated samples 6 days after infestation.

[8] = system: Tetranychus urticae (Two-spotted Spider Mite); experiment: Tetranychus urticae feeding/contact activity (Example B10); details: foliar, 192 h
Protocol: Tetranychus urticae (Two-spotted Spider Mite): Feeding/Contact Activity
Bean leaf discs on agar in 24-well microtiter plates were sprayed with aqueous test solutions prepared from 10,000 ppm DMSO stock solutions. After drying the leaf discs were infested with a mite population of mixed ages. The samples were assessed for mortality on mixed population (mobile stages) 8 days after infestation.

[9] = system: Bemisia Tabaci (Cotton White Fly); experiment: Bemisia tabaci feeding/contact activity (Example B1); details: foliar, 144 h, application rate of 200 ppm, cotton leaf discs, adult white flies, 6 days after incubation
Protocol: Bemisia Tabaci (Cotton White Fly): Feeding/Contact Activity
Cotton leaf discs were placed on agar in 24-well microtiter plates and sprayed with aqueous test solutions prepared from 10,000 ppm DMSO stock solutions. After drying the leaf discs were infested with adult white flies. The samples were checked for mortality 6 days after incubation.

[10] = system: Myzus persicae (Green Peach Aphid); experiment: Myzus persicae systemic activity (Example B6); details: 144 h, test rate of 24 ppm, roots of pea seedlings in test solution, 6 days
Protocol: Myzus persicae (Green Peach Aphid): Systemic Activity
Roots of pea seedlings infested with an aphid population of mixed ages were placed directly into aqueous test solutions prepared from 10,000 DMSO stock solutions. The samples were assessed for mortality 6 days after placing seedlings into test solutions.

CCn1c(C(F)(F)F)cc2nc(-c3cc4ccncc4cc3S(=O)(=O)CC)n(C)c2c1=O [Compound A8, 5-ethyl-2-(7-ethylsulfonyl-6-isoquinolyl)-3-methyl-6-(trifluoromethyl)imidazo[4,5-c]pyridin-4-one]
≥ 80%: percent effect (mortality or growth inhibition) at 200 ppm [1] | percent effect (mortality or growth inhibition) at 200 ppm [2] | percent effect (mortality or growth inhibition) at 200 ppm [3] | mortality at 200 ppm [4]

CCn1c(C(F)(F)F)cc2nc(-c3cc4ccccc4cc3S(=O)(=O)CC)n(C)c2c1=O [Compound A2, 5-ethyl-2-(3-ethylsulfonyl-2-naphthyl)-3-methyl-6-(trifluoromethyl)-6H-im idazo[4,5-c]pyridin-4-one]
≥ 80%: percent effect (mortality or growth inhibition) at 200 ppm [1] | percent effect (mortality or growth inhibition) at 200 ppm [2] | mortality at 200 ppm [5] | mortality at 200 ppm [6] | percent effect (mortality or growth inhibition) at 200 ppm [3] | mortality at 200 ppm [4] | percent effect (mortality, anti-feeding or growth inhibition) at 12.5 ppm [7] | mortality at 200 ppm [8]

CCn1c(C(F)(F)F)cc2nc(-c3cc4nc(C(F)(F)F)n(C)c4cc3S(=O)(=O)CC)n(C)c2c1=O [Compound A6, 5-ethyl-2-[6-ethylsulfonyl-1-methyl-2-(trifluoromethyl)benzimidazol-5-yl]-3-methyl-6-(trifluoromethyl)imidazo[4,5-c]pyridin-4-one]
≥ 80%: mortality at 200 ppm [9] | percent effect (mortality or growth inhibition) at 200 ppm [2] | mortality at 200 ppm [5] | mortality at 200 ppm [6] | mortality at 24 ppm [10] | percent effect (mortality or growth inhibition) at 200 ppm [3] | mortality at 200 ppm [4] | percent effect (mortality, anti-feeding or growth inhibition) at 12.5 ppm [7]

CCSc1cc2ccccc2cc1-c1nc2cc(C(F)(F)F)n(CC)c(=O)c2n1C [Compound A1, 5-ethyl-2-(3-ethylsulfanyl-2-naphthyl)-3-methyl-6-(trifluoromethyl)-3aH-imidazo[4,5-c]pyrid in-4-one]
≥ 80%: percent effect (mortality or growth inhibition) at 200 ppm [1] | percent effect (mortality or growth inhibition) at 200 ppm [2] | percent effect (mortality or growth inhibition) at 200 ppm [3] | mortality at 200 ppm [4]

CCSc1cc2ccccc2nc1-c1nc2cc(C(F)(F)F)n(CC)c(=O)c2n1C [Compound A3, 5-ethyl-2-(3-ethylsulfanyl-2-quinolyl)-3-methyl-6-(trifluoromethyl)-3aH-imidazo[4,5-c]pyridin-4-one]
≥ 80%: percent effect (mortality or growth inhibition) at 200 ppm [1] | mortality at 200 ppm [6] | percent effect (mortality or growth inhibition) at 200 ppm [3] | mortality at 200 ppm [4]

CCn1c(C(F)(F)F)cc2nc(-c3cc4cc[n+]([O-])cc4cc3S(=O)(=O)CC)n(C)c2c1=O [Compound A9, 5-ethyl-2-(7-ethylsulfonyl-2-oxido-isoquinolin-2-ium-6-yl)-3-methyl-6-(trifluoromethyl)imidazo[4,5-c]pyridin-4-one]
≥ 80%: mortality at 24 ppm [10] | percent effect (mortality or growth inhibition) at 200 ppm [3] | mortality at 200 ppm [4]

CCSc1cc2c(cc1-c1nc3cc(C(F)(F)F)n(CC)c(=O)c3n1C)nc(C(F)(F)F)n2C [Compound A5, 5-ethyl-2-[6-ethylsulfanyl-1-methyl-2-(trifluoromethyl)benzimidazol-5-yl]-3-methyl-6-(trifluoromethyl)imidazo[4,5-c]pyridin-4-one]
≥ 80%: percent effect (mortality or growth inhibition) at 200 ppm [2] | mortality at 200 ppm [4]
